Laboratory results reported in patent US20250320249A1, “PEPTIDE HAVING ACTIVITY OF IMPROVING STATE OF SKIN, AND USE THEREOF” (CAREGEN CO., LTD., priority 2021, published 2025).

What was measured:
NIH3T3 cells [1] = assay: Level of reactive oxygen species in ultraviolet-irradiated skin cells (DCF-DA, flow cytometry); assay type: cell-based, mouse; details: 6 J/cm2 ultraviolet rays, 50 μM or 100 μM peptide, 24 hours, FIG. 7A
Protocol: (§1) In this example, the aim was to confirm the effect of the peptide according to an embodiment on the antioxidant effect of skin cells induced by ultraviolet rays, by evaluating the level of reactive oxygen species in skin cells increased by ultraviolet irradiation.
(§2) Specifically, NIH3T3 cells or HaCaT cells were seeded in a 6-well plate at a density of 5×10^5 cells/well and cultured for 24 hours. The cells were then washed once with serum-free DMEM media, the culture medium was replaced with serum-free DMEM media, and 50 μM or 100 μM of the peptide consisting of the amino acid sequence of SEQ ID NO: 1 was dispensed to the culture medium. The culture medium dispensed with the peptide was cultured in a CO2 incubator at 37° C. for 1 hour, transferred to an e-tube, mixed with 100 μl of PBS, and dispensed into a well plate. Afterwards, using a UV irradiator (VILBER LOURMAT, France), 6 J/cm2 ultraviolet rays were irradiated to NIH3T3 cells, and 15 m J/cm2 ultraviolet rays were irradiated to HaCaT cells. The PBS in the well plate was then removed, 900 μL of the culture medium in which the peptides were dispensed was added, and the plate was cultured in a CO2 incubator at 37° C. for 24 hours. […] After washing the centrifuged cells with PBS, FL1 fluorescence values were measured through flow cytometry (FACS, BD, USA). […]

NIH3T3 cells [2] = assay: Proliferation of skin cells (SRB staining, survival rate); assay type: cell-based, mouse; details: 50 μM or 100 μM peptide, 72 hours, serum-free DMEM, FIG. 1A
Protocol: (§3) In this example, the aim was to confirm the effect of a peptide according to an example on proliferation of skin cells, by evaluating changes in survival rate of NIH3T3 cells, which are mouse fibroblasts, or HaCaT cells, which are human keratinocytes.
(§4) Specifically, NIH3T3 cells or HaCaT cells were seeded in a 96-well plate at a density of 5×10^3 cells/well and cultured for 24 hours. The cells were then washed once with serum-free DMEM media, and the culture medium was replaced with serum-free DMEM media. Then, 50 μM or 100 μM of the peptide consisting of the amino acid sequence of SEQ ID NO: 1 was dispensed into the medium, and cultured in a CO2 incubator at 37° C. for 72 hours. The culture was then washed twice with PBS and treated with 4% paraformaldehyde (PFA) solution for 15 minutes to fix the cultured cells. The culture was then washed twice with distilled water, treated with SRB solution for 1 hour to stain the cells, washed with 1% acetic acid solution, and dried. The dried culture was then dissolved in 20 mM Tris buffer solution and the absorbance at 560 nm was measured using a microplate reader (Molecular Devices, USA). In this example, the untreated group was used as the control group, and the group to which insulin-like growth factor was added (IGF) was used as the positive control group.

HaCaT cells [3] = assay: Survival rate of skin cells after apoptosis induced by ultraviolet irradiation (SRB); assay type: cell-based, human; details: 15 m J/cm^2 ultraviolet rays, 50 μM or 100 μM peptide, 72 hours, FIG. 6B
Protocol: (§5) In this example, the aim was to confirm the effect of the peptide according to an example on the inhibition of apoptosis or cell recovery of skin cells induced by ultraviolet rays, by evaluating the change in survival rate of skin cells whose apoptosis was induced by ultraviolet irradiation.
(§6) Specifically, NIH3T3 cells or HaCaT cells were seeded in a 96-well plate at a density of 1×10^4 cells/well and cultured for 24 hours. The cells were then washed once with serum-free DMEM media, the culture medium was replaced with serum-free DMEM media, and 50 μM or 100 μM of the peptide consisting of the amino acid sequence of SEQ ID NO: 1 was dispensed to the culture medium. The culture medium dispensed with the peptide was cultured in a CO2 incubator at 37° C. for 1 hour, transferred to an e-tube, mixed with 100 μl of PBS, and dispensed into a well plate. Afterwards, using a UV irradiator (VILBER LOURMAT, France), 6 J/cm^2 ultraviolet rays were irradiated to NIH3T3 cells, and 15 m J/cm^2 ultraviolet rays were irradiated to HaCaT cells. The PBS in the well plate was then removed, 900 μL of the culture medium in which the peptides were dispensed was added, and the plate was cultured in a CO2 incubator at 37° C. for 72 hours. […] The dried culture was then dissolved in 20 mM Tris buffer solution and the absorbance at 560 nm was measured using a microplate reader (Molecular Devices, USA). […]

NIH3T3 cells [4] = assay: as above; assay type: cell-based, mouse; details: 6 J/cm^2 ultraviolet rays, 50 μM or 100 μM peptide, 72 hours, FIG. 6A
Protocol: as §5, §6

HaCaT cells [5] = assay: Proliferation of skin cells (SRB staining, survival rate); assay type: cell-based, human; details: 50 μM or 100 μM peptide, 72 hours, serum-free DMEM, FIG. 1B
Protocol: as §3, §4

HaCaT cells [6] = assay: Level of reactive oxygen species in ultraviolet-irradiated skin cells (DCF-DA, flow cytometry); assay type: cell-based, human; details: 15 m J/cm2 ultraviolet rays, 50 μM or 100 μM peptide, 24 hours, FIG. 7B
Protocol: as §1, §2

sirtuin-1 (SIRT-1) = assay: Expression of skin barrier factor in HaCaT cells (RT-PCR); assay type: cell-based, human; details: 50 μM or 100 μM peptide, 24 hours, FIG. 4, FIG. 5A
Protocol: (§7) In this example, the aim was to confirm the effect of the peptides according to an example on skin barrier defense, by evaluating the expression levels of sirtuin-1 (SIRT-1) or aquaporin-3 (AQP3).
(§8) Specifically, HaCaT cells were seeded in a 6-well plate at a density of 3×10^5 cells/well and cultured for 24 hours. The cells were then washed once with serum-free DMEM media, and the culture medium was replaced with serum-free DMEM media. Thereafter, 50 μM or 100 μM of the peptide consisting of the amino acid sequence of SEQ ID NO: 1 was dispensed into the medium, and cultured in a CO2 incubator at 37° C. for 24 hours. The culture was then washed twice with PBS, and RNA was isolated from the culture using easy blue (iNtRON, Korea). Using the RT kit (Enzynomics, Korea), 1 μg of the isolated RNA was reverse transcribed to synthesize the respective cDNA. Polymerase chain reaction was then performed using the cDNAs and primers sirtuin-1 and aquaporin-3. Meanwhile, the untreated group was used as the control group, and the group to which EGF was added (EGF) was used as the positive control group, the nucleotide sequences of the primers used in this example are shown in Table 3 below.

aquaporin-3 (AQP3) = assay: as above; assay type: cell-based, human; details: 50 μM or 100 μM peptide, 24 hours, FIG. 4, FIG. 5B
Protocol: as §7, §8

elastin = assay: Expression of extracellular matrix constituent factor in NIH3T3 cells (RT-PCR); assay type: cell-based, mouse; details: 50 μM or 100 μM peptide, 24 hours, FIG. 2, FIG. 3C
Protocol: (§9) In this example, the aim was to confirm the effect of the peptide according to an example on improving endogenous skin aging, including improvement of wrinkles and enhancement of elasticity, etc., by evaluating the expression levels of collagen type 1 (Col1a1), fibronectin, or elastin, which are known components of the dermis.
(§10) Specifically, NIH3T3 cells were seeded in a 6-well plate at a density of 3×10^5 cells/well and cultured for 24 hours. The cells were then washed once with serum-free DMEM media, and the culture medium was replaced with serum-free DMEM media. Thereafter, 50 μM or 100 μM of the peptide consisting of the amino acid sequence of SEQ ID NO: 1 was dispensed into the medium, and cultured in a CO2 incubator at 37° C. for 24 hours. The culture was then washed twice with PBS, and RNA was isolated from the culture using easy blue (iNtRON, Korea). Using an RT kit (Enzynomics, Korea), 1 μg of the isolated RNA was reverse transcribed to synthesize the respective cDNA. Polymerase chain reaction (PCR) was then performed using the cDNAs and primers Col1a1, fibronectin, and elastin. Meanwhile, the untreated group was used as the control group, and the group to which TGF-β1 was added (TGF-β1) was used as the positive control group, the nucleotide sequences of the primers used in this example are shown in Table 2 below.

fibronectin = assay: as above; assay type: cell-based, mouse; details: 50 μM or 100 μM peptide, 24 hours, FIG. 2, FIG. 3B
Protocol: as §9, §10

collagen type 1 (Col1a1) = assay: as above; assay type: cell-based, mouse; details: 50 μM or 100 μM peptide, 24 hours, FIG. 2, FIG. 3A
Protocol: as §9, §10

Question: How did the “level of reactive oxygen species in fibroblasts increased by ultraviolet irradiation” value (NIH3T3 cells [1]) turn out when DGFND (Peptide 1) [SEQ ID NO: 1] was run?
Answer: reduced

Question: What about the proliferation of fibroblasts (NIH3T3 cells [2]) of the same substance?
Answer: promoted

Question: And the “cell survival rate of keratinocytes reduced by ultraviolet irradiation” value (HaCaT cells [3])?
Answer: restored

Question: What about the “cell survival rate of fibroblasts reduced by ultraviolet irradiation” value (NIH3T3 cells [4]) of the same substance?
Answer: restored

Question: And the proliferation of keratinocytes (HaCaT cells [5])?
Answer: promoted

Question: What about the “level of reactive oxygen species in keratinocytes increased by ultraviolet irradiation” value (HaCaT cells [6]) of the same substance?
Answer: reduced

Question: And the “expression of SIRT-1” value (sirtuin-1 (SIRT-1))?
Answer: increased

Question: What about the “expression of AQP3” value (aquaporin-3 (AQP3)) of the same substance?
Answer: increased

Question: What about the expression of elastin (elastin) of the same substance?
Answer: increased

Question: What about the expression of fibronectin (fibronectin) of the same substance?
Answer: increased

Question: And the “expression of Col1a1” value (collagen type 1 (Col1a1))?
Answer: increased
